In ChEMBL document CHEMBL1127513, “Glutathione-S-transferase activates novel alkylating agents” (J Med Chem, 1994):

Tests used:
Type in all cases: functional, cell-based
[1] = system: HT-29; assay: Inhibitory activity against HT-29 human colon carcinoma cells containing P1-1 GST for treatment time of 60 min.; settings: HT-29, 1 h
[2] = system: MCF7; assay: Inhibitory activity against MCF-7 neo cells […] for treatment time of 120 min.; settings: Homo sapiens, MCF7, 2 h
[3] = system: HT-29; assay: Inhibitory activity against HT-29 human colon carcinoma cells containing P1-1 GST for treatment time of 120 min.; settings: HT-29, 2 h
[4] = system: MCF7; assay: Inhibitory activity against MCF-7 pi cells containing P1-1 GST for treatment time of 120 min.; settings: Homo sapiens, MCF7, 2 h

Structure (SMILES) | IC50 [1] | IC50 [2] | IC50 [3] | IC50 [4]
NC(CCC(=O)NC(CS(=O)(=O)CCOP(=O)(N(CCCl)CCCl)N(CCCl)CCCl)C(=O)NC(C(=O)O)c1ccccc1)C(=O)O (stereo not drawn) | 170 µM | 37.5 µM | 80.3 µM | 9.5 µM
NC(CCC(=O)NC(CS(=O)(=O)CCOP(=O)(N(CCCl)CCCl)N(CCCl)CCCl)C(=O)NCC(=O)O)C(=O)O (stereo not drawn) | 84.7 µM | 40.2 µM | 68.9 µM | 20.9 µM
